# From patent US9533987B2, “Heterocyclic derivates” (KALVISTA PHARMACEUTICALS LIMITED, priority 2013, dated 2017)
# Assays:
# Human plasma kallikrein = Human plasma kallikrein (Homo sapiens (Human), UniProt P03952); experiment: Determination of the IC50 for plasma kallikrein (fluorogenic substrate H-DPro-Phe-Arg-AFC); assay type: biochemical; settings: 37° C., read-out: IC50 (human PKaI)
# Procedure: Determination of the IC50 for Plasma Kallikrein
# (§1) Human plasma kallikrein (Protogen) was incubated at 37° C. with the fluorogenic substrate H-DPro-Phe-Arg-AFC and various concentrations of the test compound. Residual enzyme activity (initial rate of reaction) was determined by measuring the change in […] at 410 nm and the IC50 value for the test compound was determined.
# [1] = Pharmacokinetics following a single oral dose in male Sprague-Dawley rats; assay type: in vivo; settings: rat, plasma
# Procedure: Pharmacokinetic studies of the compounds in Table 16 were performed to assess the pharmacokinetics following a single oral dose in male Sprague-Dawley rats. […] Following dosing, blood samples were collected over a period of 24 hours. Sample times were 5, 15 and 30 minutes then 1, 2, 4, 6, 8, 12 and 24 hours. Following collection, blood samples were centrifuged and the plasma fraction analysed for concentration of test compound by LCMS.
# Factor XIIa = Factor XIIa (Homo sapiens (Human), UniProt P00748); experiment: Determination of enzyme selectivity, Factor XIIa; assay type: biochemical; settings: substrate at Km concentration
# Sequence of Factor XIIa (P00748 373-615): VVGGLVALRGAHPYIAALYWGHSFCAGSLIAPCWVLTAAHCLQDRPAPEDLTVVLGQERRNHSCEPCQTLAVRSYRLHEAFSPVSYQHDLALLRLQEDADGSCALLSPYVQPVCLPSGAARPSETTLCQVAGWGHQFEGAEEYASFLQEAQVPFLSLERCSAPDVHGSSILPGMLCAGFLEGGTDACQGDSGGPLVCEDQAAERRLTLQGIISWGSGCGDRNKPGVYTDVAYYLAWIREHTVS
# Human KLK1 = Human KLK1 (Homo sapiens (Human), UniProt P06870); experiment: Determination of the IC50 for KLK1 (fluorogenic substrate H-DVal-Leu-Arg-AFC); assay type: biochemical; settings: 37° C.
# Sequence of Human KLK1 (P06870 25-262): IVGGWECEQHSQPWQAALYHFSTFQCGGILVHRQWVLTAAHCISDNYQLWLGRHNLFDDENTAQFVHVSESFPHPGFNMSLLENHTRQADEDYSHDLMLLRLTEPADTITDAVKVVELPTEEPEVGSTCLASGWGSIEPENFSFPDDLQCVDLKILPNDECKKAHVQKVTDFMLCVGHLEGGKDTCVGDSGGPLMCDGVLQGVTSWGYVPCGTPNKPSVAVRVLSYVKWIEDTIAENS
# Procedure: Determination of the IC50 for KLK1
# as §1, with “KLK1 (Callbiochem)” for “plasma kallikrein (Protogen)”, “H-DVal-Leu-Arg-AFC” for “H-DPro-Phe-Arg-AFC”
# [2] = in vivo; cited from earlier work
# diabetic rats = settings: cited from earlier work
# [3] = in vivo; cited from earlier work; remark: listed apart in the source
# thrombin = thrombin (Homo sapiens (Human), UniProt P00734); experiment: Determination of enzyme selectivity, thrombin; assay type: biochemical; settings: substrate at Km concentration
# Procedure: (§2) Determination of Enzyme Selectivity
# (§3) Human serine protease enzymes plasmin, thrombin, trypsin, Factor Xa and Factor XIIa were assayed for enzymatic activity using an appropriate fluorogenic substrate. Protease activity was measured by monitoring the accumulation of liberated fluorescence from the substrate over 5 minutes. The linear rate of fluorescence increase per minute was expressed as percentage (%) activity. The Km for the cleavage of each substrate was determined by standard transformation of the Michaelis-Menten equation.
# trypsin = experiment: Determination of enzyme selectivity, trypsin; assay type: biochemical, human; settings: substrate at Km concentration
# Procedure: as §2, §3
# plasmin = plasmin (Homo sapiens (Human), UniProt P00747); experiment: Determination of enzyme selectivity, plasmin; assay type: biochemical; settings: substrate at Km concentration
# Sequence of plasmin (P00747 581-810): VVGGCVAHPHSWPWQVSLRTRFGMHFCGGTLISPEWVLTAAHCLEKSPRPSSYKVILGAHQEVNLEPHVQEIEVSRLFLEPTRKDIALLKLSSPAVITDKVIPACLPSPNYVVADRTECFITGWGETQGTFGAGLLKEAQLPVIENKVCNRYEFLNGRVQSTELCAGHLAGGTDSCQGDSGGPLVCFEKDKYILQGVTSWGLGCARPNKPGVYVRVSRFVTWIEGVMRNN
# Sequence of plasmin (P00747 97-580 partner): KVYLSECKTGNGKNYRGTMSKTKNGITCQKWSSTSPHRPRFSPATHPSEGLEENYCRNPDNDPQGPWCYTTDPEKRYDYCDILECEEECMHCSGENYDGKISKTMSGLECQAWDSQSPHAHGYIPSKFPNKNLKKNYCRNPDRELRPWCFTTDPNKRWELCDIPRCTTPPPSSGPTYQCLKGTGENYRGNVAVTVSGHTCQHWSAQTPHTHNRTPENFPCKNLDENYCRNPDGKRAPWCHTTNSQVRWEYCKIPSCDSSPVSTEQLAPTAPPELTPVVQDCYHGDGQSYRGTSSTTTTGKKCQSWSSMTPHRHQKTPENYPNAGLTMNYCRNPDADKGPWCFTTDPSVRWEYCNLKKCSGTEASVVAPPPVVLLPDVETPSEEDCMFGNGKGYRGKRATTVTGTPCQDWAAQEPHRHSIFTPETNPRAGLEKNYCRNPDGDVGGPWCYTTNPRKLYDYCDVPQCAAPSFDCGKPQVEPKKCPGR
# Procedure: as §2, §3
# Sequence of Human plasma kallikrein (P03952 391-638): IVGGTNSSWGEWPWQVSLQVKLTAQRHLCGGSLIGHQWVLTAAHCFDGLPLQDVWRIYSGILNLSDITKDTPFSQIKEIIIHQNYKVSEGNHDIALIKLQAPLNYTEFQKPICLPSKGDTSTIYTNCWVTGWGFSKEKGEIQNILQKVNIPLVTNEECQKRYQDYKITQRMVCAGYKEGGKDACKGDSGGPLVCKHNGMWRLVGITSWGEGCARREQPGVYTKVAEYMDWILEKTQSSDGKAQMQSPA
# Sequence of Human plasma kallikrein (P03952 20-390 partner): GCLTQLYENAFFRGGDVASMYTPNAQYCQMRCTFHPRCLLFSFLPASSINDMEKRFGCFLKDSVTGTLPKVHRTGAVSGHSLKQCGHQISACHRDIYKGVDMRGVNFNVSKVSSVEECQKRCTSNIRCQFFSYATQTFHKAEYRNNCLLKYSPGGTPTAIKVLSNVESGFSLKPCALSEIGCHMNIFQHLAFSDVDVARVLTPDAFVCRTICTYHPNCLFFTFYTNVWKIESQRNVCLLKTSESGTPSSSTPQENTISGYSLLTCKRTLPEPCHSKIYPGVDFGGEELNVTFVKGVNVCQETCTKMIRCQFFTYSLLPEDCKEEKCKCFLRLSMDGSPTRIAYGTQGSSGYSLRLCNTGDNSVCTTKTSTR
IC50 (Human plasma kallikrein) [µM],IC50 (Factor XIIa) [nM],IC50 (Human KLK1) [µM],Cmax ([1]; single po dose 10 mg/kg) [ng/mL],Tmax ([1]; single po dose 10 mg/kg) [h],Compound,further results
0.00966,> 1000,> 4,–,–,"Nc1nccc2cc(CNC(=O)c3cn(Cc4ccc(N5CCCC5)nc4)nc3C(F)(F)F)ccc12 [Example 24, 1-(6-Pyrrolidin-1-yl-pyridin-3-ylmethyl)-3-trifluoromethyl-1H-pyrazole-4-carboxylic acid (1-amino-isoquinolin-6-ylmethyl)-amide]",Cmax ([1]; single po dose 4 mg/kg): 97 ng/mL; Tmax ([1]; single po dose 4 mg/kg): 7 h
0.0229,> 10000,> 10,56,0.5,"O=C(NCc1cccc2[nH]ncc12)c1cn(Cc2ccc(Cn3ccccc3=O)cc2)nc1C(F)(F)F [Example 126, 1-[4-(2-Oxo-2H-pyridin-1-ylmethyl)-benzyl]-3-trifluoromethyl-1H-pyrazole-4-carboxylic acid (1H-indazol-4-ylmethyl)-amide]",–
–,–,–,–,–,N=C(N)c1ccc(CNC(=O)c2cnn(Cc3ccccc3)c2)cc1 [ASP-440],oral availability [2]: poor oral availability; effect on retinal vascular permeability and retinal blood flow abnormalities (diabetic rats): ameliorated both retinal vascular permeability and retinal blood flow abnormalities
0.078,> 10000,> 10,98,0.75,"Cc1cnn(Cc2ccc(Cn3cc(C(=O)NCc4cnc5[nH]ccc5c4)cn3)cc2)c1 [Example 117, 1-[4-(4-Methyl-pyrazol-1-ylmethyl)-benzyl]-1H-pyrazole-4-carboxylic acid (1H-pyrrolo[2,3-b]pyridin-5-ylmethyl)-amide]",–
–,–,–,–,–,Ecallantide,anaphylactic reactions [3]: anaphylactic reactions
0.0547,> 10000,> 10,–,–,"Cc1cc(C(=O)NCc2ccc3c(N)nccc3c2)c(C)n1Cc1csc(-c2ccccc2)n1 [Example 1, 2,5-Dimethyl-1-(2-phenyl-thiazol-4-ylmethyl)-1H-pyrrole-3-carboxylic acid (1-amino-isoquinolin-6-ylmethyl)-amide]",IC50 (thrombin): > 40000 nM; IC50 (trypsin): > 40000 nM; IC50 (plasmin): > 40000 nM
0.00216,> 10000,> 40,642,1.25,"Cc1cnn(Cc2ccc(Cn3cc(C(=O)NCc4ccc5c(N)nccc5c4)c(C(F)(F)F)n3)cc2)c1 [Example 36, 1-[4-(4-Methyl-pyrazol-1-ylmethyl)-benzyl]-3-trifluoromethyl-1H-pyrazole-4-carboxylic acid (1-amino-isoquinolin-6-ylmethyl)-amide]",–
